What all share (format): biochemical
For experiment [1], the target named is T1, catalytic domain of MMP-8 (Homo sapiens, UniProt P22894).
T1 construct: instead of the whole enzyme only its enzymatically active catalytic domain was cloned into E. coli; made in house; host or cells: E. coli
As to the kind of experiment: Quantitative fluorescence assay for matrix metalloproteinases, MMP-8. An excerpt: Cloning and Expression of the Catalytic MMP-8 Domain
The catalytic MMP-8 domain was used as another test enzyme because it has a high degree of stability and is also available as an active enzyme and therefore needs not be activated, which is in consideration as one of the most frequent causes of error since the mercury compounds used for the activation often interfere with the test system and/or the enzyme and in this way can falsify the measuring results. The cloning strategy was directed towards the circumstance that instead of the whole enzyme only its enzymatically active catalytic domain was cloned into E. coli.
The cloning and expression of the recombinant catalytic MMP-8 domain was carried out in accordance with the information given by SCHNIERER et al. (Schnierer S., Kleine T., Gote T., Hillemann A., Knauper V., Tschesche H.: The recombinant catalytic domain of human neutrophil collagenase lacks type I collagen substrate specificity. Biochem Biophys Res Comm (1993), vol. 191, No. 2, 319-326).
(§1) Quantitative Fluorescence Assay for Matrix Metalloproteinases
(§2) The fluorescent group Mca is separated from the internal quencher Dpa by enzymatic cleavage of the synthetic substrate Mca-Pro-Leu-Gly-Leu-Dpa-Ala-Arg-NH2 using the respective collagenase. This is accompanied by a great increase in fluorescence in the measuring batch, which can be quantified using a fluorimeter (λex 328 nm, λem 393 nm) and proceeds linearly within the first few minutes. […] The proteolytic residual activity of pre-incubated batches of enzyme and inhibitor is measured, the substrate and enzyme concentrations having been kept constant and the inhibitor concentration having been varied. […]
(§3) 5 min. preliminary incubation of the enzyme-inhibitor mixture at room temperature while stirring start of the reaction with 10 μl substrate dissolved in DMSO recording of the time-sensitive fluorescence increase over a period of 2 min.

In experiment [2] the target is T2, MMP-9 (Homo sapiens, UniProt P14780).
T2 construct: from tissue; host or cells: human buffy coat (leukocytes)
T2 sequence (P14780 107-707 limits assumed): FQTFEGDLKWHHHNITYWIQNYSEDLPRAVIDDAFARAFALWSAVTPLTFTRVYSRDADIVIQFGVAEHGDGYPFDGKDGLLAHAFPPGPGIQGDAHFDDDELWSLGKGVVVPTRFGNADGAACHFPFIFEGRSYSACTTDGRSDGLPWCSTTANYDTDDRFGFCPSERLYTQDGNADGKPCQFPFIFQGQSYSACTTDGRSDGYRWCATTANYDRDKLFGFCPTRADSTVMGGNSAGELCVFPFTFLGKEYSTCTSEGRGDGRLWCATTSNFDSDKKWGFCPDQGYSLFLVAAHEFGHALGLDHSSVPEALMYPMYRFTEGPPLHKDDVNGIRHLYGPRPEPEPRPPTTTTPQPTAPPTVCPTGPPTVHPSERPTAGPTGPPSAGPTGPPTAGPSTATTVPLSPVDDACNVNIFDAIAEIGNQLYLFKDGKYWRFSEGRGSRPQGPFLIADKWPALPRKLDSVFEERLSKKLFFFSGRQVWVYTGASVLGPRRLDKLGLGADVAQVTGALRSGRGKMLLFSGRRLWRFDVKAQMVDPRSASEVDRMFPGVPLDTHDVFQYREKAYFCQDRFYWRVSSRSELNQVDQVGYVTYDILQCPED
As to the kind of experiment: Quantitative fluorescence assay for matrix metalloproteinases, MMP-9. As to the method:
Preparation of the Human Collagenase MMP-9
Native MMP-9 was obtained reproducibly and with good yield and purity from human Buffy Coat. For this purpose, Buffy Coat is brought to a final concentration of 0.4% using 10% (v/v) triton X-100, shaken on ice for 30 min. and then 1 vol. double binding buffer (40 mM Tris-HCl, pH 7.5, 10 mM CaCl2, 1 M NaCl, 0.2% (v/v) triton X-100) is added and shaking on ice is continued for another 30 min.
The solution is centrifuged off at 16,000 rpm on an SS-34 rotor at 4° C. for 15 min. and filtered on glass wool. The filtrate is batched with gelatin agarose equilibrated with binding buffer and shaken on ice for 1 hour.
The charged gelatin agarose is transferred to a column and rinsed in protein-free manner using at least 10 vol. binding buffer. The bound MMP-9 is eluted with 2 gel volumes binding buffer plus 5% (v/v) DMSO.
For an exchange of buffers and simultaneous separation of minor MMP-2 contaminations the eluate can be separated on sephadex G-75 by means of gel filtration. Buffer I (20 mM Tris-HCl, pH 7.5, 5 mM CaCl2, 100 mM NaCl, 0.1% (v/v) triton X-100) is used for this purpose. […]
as §1, §2, §3

Experiment [3] concerns the target T3, recombinant catalytic domain of MT1-MMP (MMP-14) (Homo sapiens, UniProt P50281).
T3 construct: Cloning and Expression of the Catalytic Domains of MT1-MMP and MMP-3; made in house; host or cells: Escherichia coli (inclusion bodies, renatured)
As to the kind of experiment: Quantitative fluorescence assay for matrix metalloproteinases, MT1-MMP.
Text: (§4) Cloning and Expression of the Catalytic Domains of MT1-MMP and MMP-3
Based on the good experience with the use of the catalytic domain of MMP-8 in the kinetic measurements, two more recombinant expressions were established analogously, i.e. that of human membrane type 1 matrix metalloproteinase (MT1-MMP; MMP-14) and that of human MMP-3 (stromelysin-1). Both enzymes are exemplary representatives of subgroups of human matrix metalloproteinases. Both proteins may be renatured stably and in catalytically active form from inclusion bodies of transformed Escherichia coli cells. As in the recombinant MMP-8 thus the subsequent activation of the enzymes is dropped, which improves the reproducibility of the kinetic measurements. […]
as §1, §2

Experiment [4] deals with T4, MMP-2 (Homo sapiens, UniProt P08253).
T4 construct: endogenous in cells; host or cells: cultured human dermal fibroblasts (secreted into culture supernatant)
T4 sequence (P08253 110-660): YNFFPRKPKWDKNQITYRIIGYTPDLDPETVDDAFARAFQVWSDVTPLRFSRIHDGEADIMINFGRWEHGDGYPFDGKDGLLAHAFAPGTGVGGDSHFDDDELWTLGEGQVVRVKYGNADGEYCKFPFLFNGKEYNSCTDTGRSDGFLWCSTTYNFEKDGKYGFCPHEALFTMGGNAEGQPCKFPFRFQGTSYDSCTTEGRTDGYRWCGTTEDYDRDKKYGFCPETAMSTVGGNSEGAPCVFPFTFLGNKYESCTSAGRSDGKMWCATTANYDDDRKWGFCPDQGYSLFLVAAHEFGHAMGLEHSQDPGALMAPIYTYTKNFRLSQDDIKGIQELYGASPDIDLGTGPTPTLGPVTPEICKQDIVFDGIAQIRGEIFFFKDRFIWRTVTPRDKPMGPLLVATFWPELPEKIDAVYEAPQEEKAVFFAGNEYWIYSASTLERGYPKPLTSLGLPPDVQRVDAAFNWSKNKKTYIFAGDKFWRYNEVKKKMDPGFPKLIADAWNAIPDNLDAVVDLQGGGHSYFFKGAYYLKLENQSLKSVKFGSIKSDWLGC
As to the kind of experiment: Quantitative fluorescence assay for matrix metalloproteinases, MMP-2. As to the method:
Inhibition of Matrix Metalloproteinase-2 (MMP-2)
MMP-2 (gelatinase) is supplied by cultured dermal fibroblasts to the culture medium in considerable amounts and is thus easily accessible.
For this purpose, human dermal fibroblasts are obtained according to established standard methods and cultured and the cell-free culture supernatant is treated with trypsin. Trypsin is then inactivated with a specific inhibitor (TLCK) and active MMP-2 is partially purified by affinity chromatography on gelatin sepharose and subsequent gel filtration on sepharose. MMP-2 was identified and characterized by the availability of a commercial immunoassay.
as §1
The fluorescent group Mca is separated from the internal quencher Dpa by enzymatic cleavage of the synthetic substrate Mca-Pro-Leu-Gly-Leu-Dpa-Ala-Arg-NH2 using the respective collagenase. This is accompanied by a great increase in fluorescence in the measuring batch, which can be quantified using a fluorimeter (λex 328 nm, λem 393 nm) and proceeds linearly within the first few minutes. A certain specificity of the test to matrix metalloproteinases follows from the amino acid sequence -Pro-Leu-Gly-Leu- in the substrate, on the one hand, and from the select incubation conditions, on the other hand. Matrix metalloproteinases cleave the substrate at the Gly-Leu bond. The proteolytic residual activity of pre-incubated batches of enzyme and inhibitor is measured, the substrate and enzyme concentrations having been kept constant and the inhibitor concentration having been varied. Three series of measurements using a different substrate concentration were made for each tested inhibitor.
[…] inhibitor dissolved in DMSO, or DMSO alone (non-inhibitory approach) 4 μl enzyme (MMP-2 or MMP-9 or catalytic domain of MMP-8)
as §3

Experiment [5] has as its target T5, recombinant catalytic domain of MMP-3 (Homo sapiens, UniProt P08254).
T5 construct: Cloning and Expression of the Catalytic Domains of MT1-MMP and MMP-3; made in house; host or cells: Escherichia coli (inclusion bodies, renatured)
As to the kind of experiment: Quantitative fluorescence assay for matrix metalloproteinases, MMP-3.
Text: as §4
Based on the good experience with the use of the catalytic domain of MMP-8 in the kinetic measurements, two more recombinant expressions were established analogously, i.e. that of human membrane type 1 matrix metalloproteinase (MT1-MMP; MMP-14) and that of human MMP-3 (stromelysin-1). Both enzymes are exemplary representatives of subgroups of human matrix metalloproteinases. Both proteins may be renatured stably and in catalytically active form from inclusion bodies of transformed Escherichia coli cells. As in the recombinant MMP-8 thus the subsequent activation of the enzymes is dropped, which improves the reproducibility of the kinetic measurements. The purity of the recombinant enzyme domains was at least 70%.
The cloning and expression of the catalytic domains oriented itself by the following publications: Lichte A., Kolkenbrock H., Tschesche H.: The recombinant catalytic domain of membrane-type matrix metalloproteinase-1 (MT1-MMP) induces activation of progelatinase A and progelatinase A complexed with TIMP-2. […]
as §1, §2, §3

Structures are written as SMILES.

T5 sequence (P08254 100-272 limits assumed): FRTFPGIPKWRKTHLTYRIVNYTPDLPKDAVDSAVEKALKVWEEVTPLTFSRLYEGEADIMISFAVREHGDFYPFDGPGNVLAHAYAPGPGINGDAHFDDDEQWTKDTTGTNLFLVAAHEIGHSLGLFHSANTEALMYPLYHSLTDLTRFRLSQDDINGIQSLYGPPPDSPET
T1 sequence (P22894 100-262 limits assumed): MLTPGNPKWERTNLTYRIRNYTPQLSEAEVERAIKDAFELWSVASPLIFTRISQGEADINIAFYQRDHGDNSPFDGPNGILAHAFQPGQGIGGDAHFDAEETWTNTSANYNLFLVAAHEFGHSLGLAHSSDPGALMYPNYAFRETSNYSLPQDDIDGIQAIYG

As for `O=c1[nH]c(=O)n(CC(S)CS)c2ccccc12` (racemic) [Example 2, (R,S)-1-(2′,3′-Dimercapto-prop-1′-yl)quinazoline-2,4(1H,3H)-dione], the MMP-8 inhibition in experiment [1] (with 4 μM inhibitor) amounted to 75%. The same molecule had an MMP-9 inhibition in experiment [2] (with 4 μM inhibitor) of 80%. Besides, the MT1-MMP inhibition in experiment [3] (with 4 μM inhibitor) is given as 60%. This molecule also returned an MMP-2 inhibition in experiment [4] (with 4 μM inhibitor) of 75%. Also, in experiment [5] (with 4 μM inhibitor), the MMP-3 inhibition came to 75%.

On to `O=c1[nH]c(=O)n(CCC(S)CS)c2ccccc12` (racemic) [Example 3, (R,S)-1-(3′,4′-Dimercapto-but-1′-yl)quinazoline-2,4(1H,3H)dione], for which, in experiment [1] (with 3.5 μM inhibitor), the MMP-8 inhibition was determined as 50%. The MMP-9 inhibition in experiment [2] (with 3.5 μM inhibitor) turned out to be 50%. The molecule further gave an MMP-2 inhibition in experiment [4] (with 5 μM inhibitor) of 50%. Moreover, in experiment [5] (with 9 μM inhibitor), the MMP-3 inhibition is 50%.

Consider `O=c1[nH]c(=O)n(C(CS)CS)c2ccccc12` [Example 1, 1-(1′,3′-Dimercapto-prop-2′-yl)quinazoline-2,4(1H,3H)dione], for which, in experiment [1] (with 10 μM inhibitor), the MMP-8 inhibition is recorded as 70%. For the same molecule, the MMP-9 inhibition in experiment [2] (with 10 μM inhibitor) was 60%. The MT1-MMP inhibition in experiment [3] (with 10 μM inhibitor) is given as 30% inhi-. Besides, the MMP-2 inhibition in experiment [4] (with 10 μM inhibitor) was 50%. For the same molecule, the MMP-3 inhibition in experiment [5] (with 10 μM inhibitor) amounted to 50%.

The record behind these values is patent publication US20040044013A1, “1-dimercaptoalkylquinazolin-2,4(1h,3h)-diones as matrix metalloproteinase (mmp) inhibitors” (priority 2001, published 2004).
